Experiments:
[1] = target: human serum albumin (HSA) (Homo sapiens, UniProt P02768); experiment: Fluorescence quenching titration of HSA; details: for Kd: logKb; for ΔG°: one value per compound, temperature not given; for ΔH° / ΔS°: van't Hoff
15-LOX = target: T1, 15-LOX (Glycine max, UniProt P08170); experiment: 15-LOX inhibition, Cayman's Lipoxygenase Inhibitor Screening Assay Kit
T1 sequence (P08170 1-839): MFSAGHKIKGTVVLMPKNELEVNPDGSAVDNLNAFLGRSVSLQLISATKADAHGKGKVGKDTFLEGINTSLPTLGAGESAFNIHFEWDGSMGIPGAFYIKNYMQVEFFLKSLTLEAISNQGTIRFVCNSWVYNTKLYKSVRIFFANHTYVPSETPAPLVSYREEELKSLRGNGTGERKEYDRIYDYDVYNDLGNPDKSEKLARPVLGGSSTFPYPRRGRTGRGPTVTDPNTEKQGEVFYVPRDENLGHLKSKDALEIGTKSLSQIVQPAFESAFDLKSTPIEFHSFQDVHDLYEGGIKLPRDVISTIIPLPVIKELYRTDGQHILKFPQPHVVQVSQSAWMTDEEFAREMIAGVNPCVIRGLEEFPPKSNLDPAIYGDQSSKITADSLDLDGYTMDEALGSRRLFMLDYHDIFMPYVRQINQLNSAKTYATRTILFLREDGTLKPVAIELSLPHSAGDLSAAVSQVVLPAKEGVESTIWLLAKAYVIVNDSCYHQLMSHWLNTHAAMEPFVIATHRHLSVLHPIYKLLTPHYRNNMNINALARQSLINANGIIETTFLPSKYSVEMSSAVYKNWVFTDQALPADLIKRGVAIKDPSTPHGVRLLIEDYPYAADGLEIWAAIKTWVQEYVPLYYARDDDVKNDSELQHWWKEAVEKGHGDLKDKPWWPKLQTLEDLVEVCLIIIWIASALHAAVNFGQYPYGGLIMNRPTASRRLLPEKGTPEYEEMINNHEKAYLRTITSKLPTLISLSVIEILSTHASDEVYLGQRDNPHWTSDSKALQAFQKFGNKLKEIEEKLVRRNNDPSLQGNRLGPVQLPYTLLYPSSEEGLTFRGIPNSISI

Sequence of human serum albumin (HSA) (P02768 25-609): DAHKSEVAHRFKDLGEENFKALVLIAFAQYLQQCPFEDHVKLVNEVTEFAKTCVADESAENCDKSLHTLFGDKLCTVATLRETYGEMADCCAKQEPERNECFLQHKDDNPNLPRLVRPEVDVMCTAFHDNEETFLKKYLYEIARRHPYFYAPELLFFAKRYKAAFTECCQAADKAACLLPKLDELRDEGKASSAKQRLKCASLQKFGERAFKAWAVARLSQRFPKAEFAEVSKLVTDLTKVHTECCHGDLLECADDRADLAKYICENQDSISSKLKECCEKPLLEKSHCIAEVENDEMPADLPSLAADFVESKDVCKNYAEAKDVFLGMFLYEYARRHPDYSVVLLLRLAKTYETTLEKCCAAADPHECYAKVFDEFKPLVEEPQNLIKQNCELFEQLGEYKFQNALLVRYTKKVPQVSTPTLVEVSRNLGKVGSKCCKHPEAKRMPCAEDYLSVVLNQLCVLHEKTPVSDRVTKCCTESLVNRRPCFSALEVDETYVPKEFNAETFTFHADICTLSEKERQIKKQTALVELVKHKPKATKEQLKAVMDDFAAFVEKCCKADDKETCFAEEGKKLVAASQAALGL

Structure (SMILES): CCCCn1c(C)c2c(OCC(=O)N/N=C/c3ccccc3)nn(C)c(=O)c2c1C [Compound 5a, N-[(Z/E)-benzylideneamino]-2-(6-butyl-3,5,7-trimethyl-4-oxo-pyrrolo[3,4-d]pyridazin-1-yl)oxy-acetamide]
- Ksv ([1]; T 297 K): 1.87 ± 0.04 × 10^5 dm^3·mol^−1
- kq ([1]; T 297 K): 1.87 × 10^13 dm^3·mol^−1·s^−1
- n (number of binding sites) ([1]; T 297 K): 0.97 ± 0.04
- Ksv ([1]; T 303 K): 1.71 ± 0.03 × 10^5 dm^3·mol^−1
- kq ([1]; T 303 K): 1.71 × 10^13 dm^3·mol^−1·s^−1
- n (number of binding sites) ([1]; T 303 K): 0.95 ± 0.02
- Ksv ([1]; T 308 K): 1.41 ± 0.03 × 10^5 dm^3·mol^−1
- kq ([1]; T 308 K): 1.41 × 10^13 dm^3·mol^−1·s^−1
- n (number of binding sites) ([1]; T 308 K): 0.92 ± 0.02
- Kd ([1]; T 297 K): 7.94 µM
- Kd ([1]; T 303 K): 11.2 µM
- Kd ([1]; T 308 K): 20.9 µM
- ΔG° [1]: -29.20 kJ/mol
- ΔH° [1]: -67.55 kJ/mol
- ΔS° [1]: −129.11 J·mol^−1·K^−1
- IC50 (15-LOX): 12.9 ± 0.06 µM

Structure (SMILES): Cc1c2c(OCC(=O)N/N=C/c3ccccc3)nn(C)c(=O)c2c(C)n1-c1ccccc1 [Compound 5b, N-[(Z/E)-benzylideneamino]-2-(3,5,7-trimethyl-4-oxo-6-phenyl-pyrrolo[3,4-d]pyridazin-1-yl)oxy-acetamide]
- Ksv ([1]; T 297 K): 5.55 ± 0.33 × 10^5 dm^3·mol^−1
- kq ([1]; T 297 K): 5.55 × 10^13 dm^3·mol^−1·s^−1
- n (number of binding sites) ([1]; T 297 K): 1.15 ± 0.06
- Ksv ([1]; T 303 K): 5.26 ± 0.28 × 10^5 dm^3·mol^−1
- kq ([1]; T 303 K): 5.26 × 10^13 dm^3·mol^−1·s^−1
- n (number of binding sites) ([1]; T 303 K): 1.10 ± 0.10
- Ksv ([1]; T 308 K): 4.75 ± 0.23 × 10^5 dm^3·mol^−1
- kq ([1]; T 308 K): 4.75 × 10^13 dm^3·mol^−1·s^−1
- n (number of binding sites) ([1]; T 308 K): 1.02 ± 0.05
- Kd ([1]; T 297 K): 0.263 µM
- Kd ([1]; T 303 K): 0.49 µM
- Kd ([1]; T 308 K): 1.45 µM
- ΔG° [1]: -37.66 kJ/mol
- ΔH° [1]: -116.19 kJ/mol
- ΔS° [1]: −264.38 J·mol^−1·K^−1
- IC50 (15-LOX): 13.5 ± 0.02 µM

Structure (SMILES): Cc1c2c(OCC(=O)N/N=C/c3ccccc3)nn(C)c(=O)c2c(C)n1-c1cccc(Cl)c1 [Compound 5c, N-[(Z/E)-benzylideneamino]-2-[6-(3-chlorophenyl)-3,5,7-trimethyl-4-oxo-pyrrolo[3,4-d]pyridazin-1-yl]oxyacetamide]
- Ksv ([1]; T 297 K): 4.33± 0.25 × 10^5 dm^3·mol^−1
- kq ([1]; T 297 K): 4.33 × 10^13 dm^3·mol^−1·s^−1
- n (number of binding sites) ([1]; T 297 K): 0.92 ± 0.06
- Ksv ([1]; T 303 K): 3.86 ± 0.13 × 10^5 dm^3·mol^−1
- kq ([1]; T 303 K): 3.86 × 10^13 dm^3·mol^−1·s^−1
- n (number of binding sites) ([1]; T 303 K): 0.90 ± 0.02
- Ksv ([1]; T 308 K): 2.87 ± 0.12 × 10^5 dm^3·mol^−1
- kq ([1]; T 308 K): 2.87 × 10^13 dm^3·mol^−1·s^−1
- n (number of binding sites) ([1]; T 308 K): 0.85 ± 0.04
- Kd ([1]; T 297 K): 6.17 µM
- Kd ([1]; T 303 K): 8.91 µM
- Kd ([1]; T 308 K): 26.3 µM
- ΔG° [1]: -29.97 kJ/mol
- ΔH° [1]: -98.113 kJ/mol
- ΔS° [1]: −229.47 J·mol^−1·K^−1
- IC50 (15-LOX): 12.7 ± 0.04 µM

Reference: article PMC10383271
